Measurements taken from paper PMC9386018, “A lymphatic-absorbed multi-targeted kinase inhibitor for myelofibrosis therapy” (Nature Communications, 2022).
Values joined by “and” are separate entries in the source; they are usually repeats but may differ in a detail not shown here. Identical values can stand only once.

Legend:
PI3Kγ = PI3Kγ (Homo sapiens, UniProt P48736); assay: Target kinase 10-point inhibition assay, PI3Kγ; type: biochemical; conditions: PI3K gamma, replicates
Protocol: (§1) Quantitation of kinase inhibition was carried out by Life Technologies (Madison, WI) using the SelectScreen profiling platforms Z’-LYTE^TM and Adapta^TM. Single-point broad panel kinome screening was performed at 2.5 µM LP-182 against all kinases within the Z’-LYTE^TM and Adapta^TM assays (321 kinase isoforms, holoenzymes, or mutant variants). The average percent kinase inhibition from replicate data was ranked low to high, converted to a compatible identifier format, then input into Coral Human Kinome Visualization software for presentation analysis. […] Scaling of evolutionary distance for PI kinases is only relative and is based on literature analysis[62],[63]. Average percent kinome inhibition values from replicate data are supplied in Source Data file. […]. Corrected data was normalized to vehicle treated control values, and dose response percent kinase activity was analyzed by non-linear regression for determination of IC50 values.

mTOR = mTOR (Homo sapiens, UniProt P42345); assay: Target kinase 10-point inhibition assay, mTOR; type: biochemical; conditions: replicates
mTOR, sequence (P42345 1360-2549 limits assumed): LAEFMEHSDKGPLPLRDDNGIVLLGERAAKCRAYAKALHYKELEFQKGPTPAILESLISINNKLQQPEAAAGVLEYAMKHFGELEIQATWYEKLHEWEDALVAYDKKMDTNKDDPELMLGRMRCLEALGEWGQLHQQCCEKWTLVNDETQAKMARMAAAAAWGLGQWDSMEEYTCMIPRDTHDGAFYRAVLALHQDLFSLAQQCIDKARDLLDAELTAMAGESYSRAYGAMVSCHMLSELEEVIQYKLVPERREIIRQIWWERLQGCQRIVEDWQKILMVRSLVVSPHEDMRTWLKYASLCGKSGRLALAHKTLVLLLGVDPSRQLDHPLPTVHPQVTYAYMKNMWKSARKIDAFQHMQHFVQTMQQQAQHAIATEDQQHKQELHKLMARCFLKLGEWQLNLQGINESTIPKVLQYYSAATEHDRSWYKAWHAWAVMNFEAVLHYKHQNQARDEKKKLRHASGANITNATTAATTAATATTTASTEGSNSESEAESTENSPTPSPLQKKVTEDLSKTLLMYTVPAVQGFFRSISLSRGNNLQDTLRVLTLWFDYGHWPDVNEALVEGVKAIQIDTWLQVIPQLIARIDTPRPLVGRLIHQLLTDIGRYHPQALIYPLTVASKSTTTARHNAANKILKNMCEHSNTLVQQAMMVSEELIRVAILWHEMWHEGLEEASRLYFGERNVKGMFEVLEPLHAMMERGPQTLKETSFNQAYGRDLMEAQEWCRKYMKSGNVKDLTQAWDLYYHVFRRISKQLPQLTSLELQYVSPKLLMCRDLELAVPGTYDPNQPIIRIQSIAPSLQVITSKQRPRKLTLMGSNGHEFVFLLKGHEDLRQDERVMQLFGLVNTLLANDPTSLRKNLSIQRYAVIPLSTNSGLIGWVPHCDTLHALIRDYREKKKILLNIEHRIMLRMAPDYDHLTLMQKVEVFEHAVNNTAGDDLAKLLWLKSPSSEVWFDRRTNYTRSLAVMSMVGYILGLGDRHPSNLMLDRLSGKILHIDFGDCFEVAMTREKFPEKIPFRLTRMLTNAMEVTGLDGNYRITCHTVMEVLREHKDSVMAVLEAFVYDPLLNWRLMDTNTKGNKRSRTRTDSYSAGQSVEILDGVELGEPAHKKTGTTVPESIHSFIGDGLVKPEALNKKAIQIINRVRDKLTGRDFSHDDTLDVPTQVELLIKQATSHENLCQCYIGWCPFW
Protocol: as §1

[1] = target: Target kinase isoforms (PI3K, mTOR, RAF, MEK) (Homo sapiens, UniProt P48736); assay: Target kinase isoforms 10-point IC50 determination (Supplementary Fig. 7); type: biochemical; conditions: PI3K gamma
Target kinase isoforms (PI3K, mTOR, RAF, MEK), sequence (P48736 whole entry, canonical isoform): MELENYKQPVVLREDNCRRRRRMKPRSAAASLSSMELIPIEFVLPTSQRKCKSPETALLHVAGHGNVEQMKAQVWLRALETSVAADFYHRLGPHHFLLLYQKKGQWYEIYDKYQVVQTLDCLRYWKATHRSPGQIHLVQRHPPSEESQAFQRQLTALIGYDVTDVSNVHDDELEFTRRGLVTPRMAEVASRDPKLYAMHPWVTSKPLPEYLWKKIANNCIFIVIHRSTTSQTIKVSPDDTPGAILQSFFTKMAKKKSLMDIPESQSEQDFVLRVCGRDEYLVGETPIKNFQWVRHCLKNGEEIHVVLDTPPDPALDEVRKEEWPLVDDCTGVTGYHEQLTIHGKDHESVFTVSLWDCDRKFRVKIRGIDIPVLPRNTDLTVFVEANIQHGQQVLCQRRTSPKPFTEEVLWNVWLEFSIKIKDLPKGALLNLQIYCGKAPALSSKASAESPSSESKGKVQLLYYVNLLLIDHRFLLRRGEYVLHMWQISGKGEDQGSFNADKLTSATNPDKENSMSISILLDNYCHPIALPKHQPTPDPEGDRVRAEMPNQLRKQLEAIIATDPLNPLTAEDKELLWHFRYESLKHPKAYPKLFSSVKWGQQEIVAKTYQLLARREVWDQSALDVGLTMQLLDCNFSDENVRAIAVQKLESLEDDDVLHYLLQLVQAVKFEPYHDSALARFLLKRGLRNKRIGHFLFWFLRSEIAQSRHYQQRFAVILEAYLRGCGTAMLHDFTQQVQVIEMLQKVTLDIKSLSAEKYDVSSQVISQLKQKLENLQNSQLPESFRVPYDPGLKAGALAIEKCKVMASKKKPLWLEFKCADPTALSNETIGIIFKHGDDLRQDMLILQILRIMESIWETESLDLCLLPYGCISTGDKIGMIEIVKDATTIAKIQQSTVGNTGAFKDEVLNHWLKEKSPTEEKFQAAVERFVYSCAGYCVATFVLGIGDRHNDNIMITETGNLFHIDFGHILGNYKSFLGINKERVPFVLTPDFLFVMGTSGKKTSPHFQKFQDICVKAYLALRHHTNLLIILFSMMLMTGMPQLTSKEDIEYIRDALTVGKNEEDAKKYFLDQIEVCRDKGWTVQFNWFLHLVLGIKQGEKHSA
Description: The average percent kinase inhibition from replicate data was ranked low to high, converted to a compatible identifier format, then input into Coral Human Kinome Visualization software for presentation analysis. […] Scaling of evolutionary distance for PI kinases is only relative and is based on literature analysis[62],[63]. Average percent kinome inhibition values from replicate data are supplied in Source Data file. […] Corrected data was normalized to vehicle treated control values, and dose response percent kinase activity was analyzed by non-linear regression for determination of IC50 values.

SET-2 cells = assay: SET-2 proliferation assay (CellTiter-Fluor); type: cell-based, human; conditions: 72 h, replicates (Fig. 2d)
Protocol: Viable cells were counted by CellTiter-Fluor Assay (Promega) according to manufacturer’s protocol, and all fluorescence values were corrected by a no-cell control. […] Caspase activity was measured by Caspase-Glo 3/7 assay (Promega) according to the manufacturer’s protocol, and all luminescence values were corrected by a no-cell control. Dose response proliferation and Caspase activation data was normalized to vehicle treated control cells and analyzed by non-linear regression for determination of IC50 values. Data was generated from n = 3 independent experiments performed in replicate.

[2] = Pharmacokinetic analysis of plasma after intravenous and oral dosing; conditions: plasma, mice, analyte = label, individual animals
Protocol: Samples were centrifuged at 15,000 rpm for 10 min, then blood plasma was collected from the upper layer and frozen at −80 °C until analysis. […] Sample processing, chromatographic separation, MS, and MS/MS parameters used for analysis were determined by the core. […] Standard curves for peak area ratio of compound to internal standard (Astd/AIstd) vs. compound concentration were used to determine sample analyte concentrations through linear regression with a weighting average of 1/X^2. […] All pharmacokinetic parameters were estimated using non-compartmental analysis with Phoenix/WINONLIN, and provided by the core along with calculated sample analyte concentrations. Data was generated from n ≥ 3 individual animals sampled per time point per compound for each method of dosing.

PI3Kγ, sequence (P48736 whole entry, canonical isoform): as above

With `O=S(=O)(Nc1cc(-c2ccc3ncc(N4CCNCC4)nc3c2)cnc1Cl)c1ccc(F)cc1` [LP-527, N-(2-chloro-5-(3-(piperazin-1-yl)quinoxalin-6-yl)pyridin-3-yl)-4-fluorobenzenesulfonamide] as the compound, how does the activity at 18.7 pM (PI3Kγ; 0.0187 nM) read?
The activity at 18.7 pM was 98%.

And the “Kinase Activity (%)” value (PI3Kγ; 0.0187 nM, 18.7 pM)?
Its value is 118% and 115% and 109%.

What about the “Kinase Activity (%)” value (PI3Kγ; 0.0562 nM, 56.2 pM) of the same compound?
Its value is 103% and 91% and 124%.

What about the “Kinase Activity (%)” value (PI3Kγ; 0.495 nM, 0.000495 µM) of the same compound?
The value was 94% (2×) and 75% and 83% and 72% and 100% and 97% and 99% and 96%.

What about the “Kinase Activity (%)” value (PI3Kγ; 1.52 nM, 0.00152 µM) of the same compound?
Its value is 67% and 68% and 73% and 64% and 69% (2×) and 94% and 93% and 92% and 65%.

What about the “Kinase Activity (%)” value (PI3Kγ; 4.57 nM, 0.00457 µM) of the same compound?
Its value is 52% and 53% and 49% and 45% and 47% and 76% and 79% and 62% and 70% and 55%.

And the “Kinase Activity (%)” value (PI3Kγ; 41.2 nM, 0.0412 µM)?
Its value is 18% and 7% and 11% and 10% and 9% and 25% and 24% and 17% and 23% and 14%.

And the “Kinase Activity (%)” value (PI3Kγ; 123 nM, 0.123 µM)?
Its value is 5% and 3% (2×) and 6% and 4% and 11% and 10% (2×) and 9% and 8%.

And the “Kinase Activity (%)” value (PI3Kγ; 1110 nM, 1.11 µM)?
The value was 0% (4×) and 8% and 1%.

What about the “Kinase Activity (%)” value (PI3Kγ; 3330 nM, 3.33 µM) of the same compound?
The value was 0% (5×) and 3%.

And the “Kinase Activity (%)” value (PI3Kγ; 10000 nM, 10 µM)?
Its value is 3% and 0% (4×) and 8%.

What about the activity at 6.09 pM (PI3Kγ; […]) of the same compound?
The activity at 6.09 pM was 102%.

What about the activity at 0.000495 µM (mTOR; 0.495 nM) of the same compound?
The activity at 0.000495 µM was 96%.

And the “Kinase Activity (%)” value (mTOR; 0.495 nM, 0.000495 µM)?
Its value is 89% and 90% (2×) and 92%.

What about the activity at 0.00152 µM (mTOR; 1.52 nM) of the same compound?
Its activity at 0.00152 µM is 78%.

And the “Kinase Activity (%)” value (mTOR; 1.52 nM, 0.00152 µM)?
Its value is 80% and 77% and 74% and 83% and 76%.

And the activity at 0.00457 µM (mTOR; 4.57 nM)?
Its activity at 0.00457 µM is 63%.

What about the “Kinase Activity (%)” value (mTOR; 4.57 nM, 0.00457 µM) of the same compound?
Its value is 61% and 56% and 52% and 57% and 58%.

What about the “Kinase Activity (%)” value (mTOR; 41.2 nM, 0.0412 µM) of the same compound?
Its value is 15% and 14% and 8% and 12% and 0% and 10%.

What about the “Kinase Activity (%)” value (mTOR; 123 nM, 0.123 µM) of the same compound?
Its value is 7% (2×) and 3% and 2% and 5% and 0%.

And the “Kinase Activity (%)” value (mTOR; 1110 nM, 1.11 µM)?
Its value is 5% and 3% and 2% and -4% and -2% and -1%.

What about the “Kinase Activity (%)” value (mTOR; 3330 nM, 3.33 µM) of the same compound?
The value was 3% and 2% and 1% and -3% and -2% and -4%.

And the “Kinase Activity (%)” value (mTOR; 10000 nM, 10 µM)?
Its value is 6% and 3% and 0% and -1% and 1% and -2%.

And the activity at 18.7 pM ([1]; concentration 0.0187 nM)?
Its activity at 18.7 pM is 118%.

What about the “Kinase Activity (%) PI3K gamma” value ([1]; concentration 3330 nM, 3.33 µM) of the same compound?
Its value is 0% and 3%.

What about the “Kinase Activity (%) PI3K gamma” value ([1]; concentration 10000 nM, 10 µM) of the same compound?
Its value is 3% and 0% and 8%.

What about the activity at 6.09 pM ([1]; concentration […]) of the same compound?
Its activity at 6.09 pM is 110%.

And the “Growth (%)” value (SET-2 cells; 0.0390625 µM)?
The value was 97.7197% and 103.197% and 95.0232% and 96.0199% and 87.1186% and 84.2432%.

What about the “Growth (%)” value (SET-2 cells; 0.078125 µM) of the same compound?
Its value is 102.201% and 95.8185% and 100.256% and 94.6633% and 89.3668% and 84.7402%.

What about the “Growth (%)” value (SET-2 cells; 0.15625 µM) of the same compound?
Its value is 60.7367% and 65.6255% and 73.87% and 70.9074% and 80.6697% and 85.462%.

What about the “Growth (%)” value (SET-2 cells; 0.3125 µM) of the same compound?
Its value is 89.6622% and 88.0779% and 85.9694% and 85.0557% and 87.935% and 90.4791%.

What about the “Growth (%)” value (SET-2 cells; 0.625 µM) of the same compound?
Its value is 81.0162% and 91.3823% and 77.1925% and 82.0932% and 77.6879% and 82.066%.

What about the “Growth (%)” value (SET-2 cells; 5 µM) of the same compound?
The value was 12.7992% and 7.412% and 15.3388% and 14.5913% and 45.9761% and 39.8941%.

What about the “Growth (%)” value (SET-2 cells; 10 µM) of the same compound?
Its value is -3.542% and -5.534% and -4.236% and 0.443% and 15.3648% and 16.0393%.

What about the “Growth (%)” value (SET-2 cells; 20 µM) of the same compound?
The value was -8.838% and -10.5585% and -11.075% and -10.5212% and 6.443% and 9.661%.

What about the concentration at 0.167 h ([2]; female, CD-1, mouse, iv, 15 mg kg^−1, Concentration (ng/mL), single i.v. LP-182 15 mg kg^−1, 0.167 h) of the same compound?
The concentration at 0.167 h was 15.5 ng/mL.

What about the concentration at 0.5 h ([2]; female, CD-1, mouse, iv, 15 mg kg^−1, Concentration (ng/mL), single i.v. LP-182 15 mg kg^−1, 0.5 h) of the same compound?
The concentration at 0.5 h was 7.17 ng/mL.

What about the concentration at 1 h ([2]; female, CD-1, mouse, iv, 15 mg kg^−1, Concentration (ng/mL), single i.v. LP-182 15 mg kg^−1, 1 h) of the same compound?
The concentration at 1 h was 6.53 ng/mL.

What about the concentration at 0.5 h ([2]; female, CD-1, mouse, po, 400 mg kg^−1, Concentration (ng/mL), single p.o. LP-182 400 mg kg^−1, 0.5 h) of the same compound?
Its concentration at 0.5 h is 9.62 ng/mL.

And the concentration at 16 h ([2]; female, CD-1, mouse, po, 400 mg kg^−1, Concentration (ng/mL), single p.o. LP-182 400 mg kg^−1, 16 h)?
Its concentration at 16 h is 19 ng/mL.

What about the “Concentration” value ([2]; single i.v. LP-182 15 mg kg^−1, 0.167 h) of the same compound?
Its value is 14.8 ng/mL and 14.5 ng/mL.

What about the “Concentration” value ([2]; single i.v. LP-182 15 mg kg^−1, 0.5 h) of the same compound?
The value was 7.97 ng/mL and 7.89 ng/mL.

And the “Concentration” value ([2]; single i.v. LP-182 15 mg kg^−1, 1 h)?
The value was 5.65 ng/mL and 6.42 ng/mL.

What about the “Concentration” value ([2]; single i.v. LP-182 15 mg kg^−1, 2 h) of the same compound?
Its value is 2.97 ng/mL and 2.53 ng/mL and 1.08 ng/mL.

And the “Concentration” value ([2]; single p.o. LP-182 400 mg kg^−1, 0.167 h)?
Its value is 7.25 ng/mL and 15.1 ng/mL and 1.83 ng/mL.

And the “Concentration” value ([2]; single p.o. LP-182 400 mg kg^−1, 0.5 h)?
Its value is 13.1 ng/mL and 15 ng/mL.

And the “Concentration” value ([2]; single p.o. LP-182 400 mg kg^−1, 1 h)?
Its value is 29.3 ng/mL and 56.7 ng/mL and 12.7 ng/mL.

And the “Concentration” value ([2]; single p.o. LP-182 400 mg kg^−1, 2 h)?
Its value is 12.6 ng/mL and 14.5 ng/mL and 5.44 ng/mL.

What about the “Concentration” value ([2]; single p.o. LP-182 400 mg kg^−1, 4 h) of the same compound?
Its value is 23.5 ng/mL and 11.5 ng/mL and 14 ng/mL.

What about the “Concentration” value ([2]; single p.o. LP-182 400 mg kg^−1, 7 h) of the same compound?
Its value is 27.3 ng/mL and 11.6 ng/mL and 31.5 ng/mL.

And the “Concentration” value ([2]; single p.o. LP-182 400 mg kg^−1, 16 h)?
Its value is 12.8 ng/mL and 13.1 ng/mL.

What about the “Concentration” value ([2]; single p.o. LP-182 400 mg kg^−1, 24 h) of the same compound?
Its value is 24.5 ng/mL and 9.81 ng/mL and 21.4 ng/mL.
